Measurements published in patent US20150105252A1, “SUBSTITUTED PYRAZOLES AS HERBICIDES” (E I DU PONT DE NEMOURS AND COMPANY, priority 2013, published 2015).

Assays:
mustard, wild = experiment: Test D postemergence; format: in vivo, Sinapis arvensis; details: scale 0 to 100
Excerpt: (§1) Seeds of plant species selected from bluegrass (annual bluegrass, Poa annua), blackgrass (Alopecurus myosuroides), canarygrass (littleseed canarygrass, Phalaris minor), chickweed (common chickweed, Stellaria media), galium (catchweed bedstraw, Galium aparine), bromegrass, downy (downy bromegrass, Bromus tectorum), field poppy (Papaver rhoeas), field violet (Viola arvensis), foxtail, green (green foxtail, Setaria viridis), deadnettle (henbit deadnettle, Lamium amplexicaule), ryegrass, Italian (Italian ryegrass, Lolium multiflorum), kochia (Kochia scoparia), lambsquarters (Chenopodium album), oilseed rape (Brassica napus), pigweed (redroot pigweed, Amaranthus retroflexus), chamomile (scentless chamomile, Matricaria inodora), speedwell (bird's-eye speedwell, Veronica persica), barley, spring (spring barley, Hordeum vulgare), wheat, spring (spring wheat, Triticum aestivum), buckwheat, wild (wild buckwheat, Polygonum convolvulus), mustard, wild (wild mustard, Sinapis arvensis), oat, wild (wild oat, Avena fatua), radish, wild (wild radish, Raphanus raphanistrum), windgrass (Apera spica-venti), Russian thistle (Salsola kali), barley, winter (winter barley, Hordeum vulgare), and wheat, winter (winter wheat, Triticum aestivum) were planted into a silt loam soil and treated preemergence with test chemicals formulated in a non-phytotoxic solvent mixture which included a surfactant.
(§2) At the same time, these species were planted in pots containing Redi-Earth® planting medium (Scotts Company, 14111 Scottslawn Road, Marysville, Ohio 43041) comprising spaghnum peat moss, vermiculite, wetting agent and starter nutrients and treated with postemergence applications of the test chemicals formulated in the same manner. Plants ranged in height from 2 to 18 cm (1- to 4-leaf stage). Treated plants and controls were maintained in a controlled growth environment for 14 to 21 days after which time all species were compared to controls and visually evaluated. Plant response ratings, summarized in Table D, are based on a scale of 0 to 100 where 0 is no effect and 100 is complete control. A dash (-) response means no test result.

kochia = experiment: Test D postemergence; format: in vivo, Kochia scoparia; details: scale 0 to 100
Excerpt: as §1, §2

chickweed = experiment: Test D postemergence; format: in vivo, Stellaria media; details: scale 0 to 100
Excerpt: as §1, §2

bluegrass [1] = experiment: Test D postemergence; format: in vivo, Poa annua; details: scale 0 to 100
Excerpt: as §1, §2

windgrass = experiment: Test D preemergence; format: in vivo, Apera spica-venti; details: for Plant response rating, Windgrass: Preemergence, scale 0 to 100
Excerpt: as §1, §2

blackgrass = experiment: Test D postemergence; format: in vivo, Alopecurus myosuroides; details: scale 0 to 100
Excerpt: as §1, §2

bromegrass, downy = experiment: Test D preemergence; format: in vivo, Bromus tectorum; details: for Plant response rating, Bromegrass, Downy: Preemergence, scale 0 to 100
Excerpt: as §1, §2

deadnettle = experiment: Test D postemergence; format: in vivo, Lamium amplexicaule; details: scale 0 to 100
Excerpt: as §1, §2

canarygrass = experiment: Test D postemergence; format: in vivo, Phalaris minor; details: scale 0 to 100
Excerpt: as §1, §2

field poppy = experiment: Test D preemergence; format: in vivo, Papaver rhoeas; details: for Plant response rating, Field Poppy: Preemergence, scale 0 to 100
Excerpt: as §1, §2

wheat, winter = experiment: Test D preemergence; format: in vivo, Triticum aestivum; details: for Plant response rating, Wheat, Winter: Preemergence, scale 0 to 100
Excerpt: as §1, §2

wheat, spring = experiment: Test D preemergence; format: in vivo, Triticum aestivum; details: for Plant response rating, Wheat, Spring: Preemergence, scale 0 to 100
Excerpt: as §1, §2

buckwheat, wild = experiment: Test D postemergence; format: in vivo, Polygonum convolvulus; details: scale 0 to 100
Excerpt: as §1, §2

ryegrass, Italian = experiment: Test D postemergence; format: in vivo, Lolium multiflorum; details: scale 0 to 100
Excerpt: as §1, §2

oilseed rape [2] = experiment: Test D postemergence; format: in vivo, Brassica napus; details: scale 0 to 100
Excerpt: as §1, §2

bluegrass [3] = experiment: Test D preemergence; format: in vivo, Poa annua; details: for Plant response rating, Bluegrass: Preemergence, scale 0 to 100
Excerpt: as §1, §2

field violet = experiment: Test D preemergence; format: in vivo, Viola arvensis; details: for Plant response rating, Field Violet: Preemergence, scale 0 to 100
Excerpt: as §1, §2

oilseed rape [4] = experiment: Test D preemergence; format: in vivo, Brassica napus; details: for Plant response rating, Oilseed Rape: Preemergence, scale 0 to 100
Excerpt: as §1, §2

foxtail, green = experiment: Test D preemergence; format: in vivo, Setaria viridis; details: for Plant response rating, Foxtail, Green: Preemergence, scale 0 to 100
Excerpt: as §1, §2

[5] = 16 g ai/ha, taken as preemergence

## Cc1cc(C(=O)NCC(F)(F)F)nn1Cc1ccnc(C(F)(F)F)c1 [Compound 74]
mustard, wild; Postemergence, 16 g ai/ha
  Plant response rating, Mustard, Wild: 20
mustard, wild; Postemergence, 31 g ai/ha
  Mustard, Wild plant response rating: 30
mustard, wild; Postemergence, 125 g ai/ha
  Mustard, Wild plant response rating: 55
mustard, wild; postemergence, 62 g ai/ha
  Mustard, Wild plant response rating: 30
kochia; Postemergence, 16 g ai/ha
  Plant response rating, Kochia: 15
kochia; Postemergence, 31 g ai/ha
  Kochia plant response rating: 25
kochia; Postemergence, 125 g ai/ha
  Kochia plant response rating: 65
kochia; postemergence, 62 g ai/ha
  Kochia plant response rating: 35
chickweed; Postemergence, 16 g ai/ha
  Plant response rating, Chickweed: 15
chickweed; Postemergence, 31 g ai/ha
  Chickweed plant response rating: 35
chickweed; Postemergence, 125 g ai/ha
  Chickweed plant response rating: 65
chickweed; postemergence, 62 g ai/ha
  Chickweed plant response rating: 25
Bluegrass [1]; Postemergence, 16 g ai/ha
  Plant response rating, Bluegrass: 5
Bluegrass [1]; Postemergence, 31 g ai/ha
  Bluegrass plant response rating: 5
Bluegrass [1]; Postemergence, 125 g ai/ha
  Bluegrass plant response rating: 5
Bluegrass [1]; postemergence, 62 g ai/ha
  Bluegrass plant response rating: 5
windgrass; [5]
  Plant response rating (scale 0 to 100), Windgrass: 0
windgrass; 31 g ai/ha
  Plant response rating, Windgrass: 0
windgrass; 62 g ai/ha
  Plant response rating, Windgrass: 25
windgrass; 125 g ai/ha
  Plant response rating, Windgrass: 35
blackgrass; Postemergence, 16 g ai/ha
  Plant response rating, Blackgrass: 0
blackgrass; Postemergence, 31 g ai/ha
  Blackgrass plant response rating: 0
blackgrass; Postemergence, 125 g ai/ha
  Blackgrass plant response rating: 0
blackgrass; postemergence, 62 g ai/ha
  Blackgrass plant response rating: 5
bromegrass, downy; [5]
  Plant response rating (scale 0 to 100), Bromegrass, Downy: 0
bromegrass, downy; 31 g ai/ha
  Plant response rating, Bromegrass, Downy: 0
bromegrass, downy; 62 g ai/ha
  Plant response rating, Bromegrass, Downy: 5
bromegrass, downy; 125 g ai/ha
  Plant response rating, Bromegrass, Downy: 0
deadnettle; Postemergence, 16 g ai/ha
  Plant response rating, Deadnettle: 10
deadnettle; Postemergence, 31 g ai/ha
  Deadnettle plant response rating: 15
deadnettle; Postemergence, 125 g ai/ha
  Deadnettle plant response rating: 30
deadnettle; postemergence, 62 g ai/ha
  Deadnettle plant response rating: 20
canarygrass; Postemergence, 16 g ai/ha
  Plant response rating, Canarygrass: 0
canarygrass; Postemergence, 31 g ai/ha
  Canarygrass plant response rating: 0
canarygrass; Postemergence, 125 g ai/ha
  Canarygrass plant response rating: 0
canarygrass; postemergence, 62 g ai/ha
  Canarygrass plant response rating: 0
Field poppy; [5]
  Plant response rating (scale 0 to 100), Field Poppy: 50
Field poppy; 31 g ai/ha
  Plant response rating, Field Poppy: 80
Field poppy; 62 g ai/ha
  Plant response rating, Field Poppy: 95
Field poppy; 125 g ai/ha
  Plant response rating, Field Poppy: 100
wheat, winter; [5]
  Plant response rating (scale 0 to 100), Wheat, Winter: 0
wheat, winter; 31 g ai/ha
  Plant response rating, Wheat, Winter: 0
wheat, winter; 62 g ai/ha
  Plant response rating, Wheat, Winter: 0
wheat, winter; 125 g ai/ha
  Plant response rating, Wheat, Winter: 5
wheat, spring; [5]
  Plant response rating (scale 0 to 100), Wheat, Spring: 0
wheat, spring; 31 g ai/ha
  Plant response rating, Wheat, Spring: 0
wheat, spring; 62 g ai/ha
  Plant response rating, Wheat, Spring: 0
wheat, spring; 125 g ai/ha
  Plant response rating, Wheat, Spring: 0
buckwheat, wild; Postemergence, 16 g ai/ha
  Plant response rating, Buckwheat, Wild: 60
buckwheat, wild; Postemergence, 31 g ai/ha
  Buckwheat, Wild plant response rating: 60
buckwheat, wild; Postemergence, 125 g ai/ha
  Buckwheat, Wild plant response rating: 65
buckwheat, wild; postemergence, 62 g ai/ha
  Buckwheat, Wild plant response rating: 45
ryegrass, Italian; Postemergence, 16 g ai/ha
  Plant response rating, Ryegrass, Italian: 0
ryegrass, Italian; Postemergence, 31 g ai/ha
  Ryegrass, Italian plant response rating: 5
ryegrass, Italian; Postemergence, 125 g ai/ha
  Ryegrass, Italian plant response rating: 10
ryegrass, Italian; postemergence, 62 g ai/ha
  Ryegrass, Italian plant response rating: 5
Oilseed rape [2]; Postemergence, 16 g ai/ha
  Plant response rating, Oilseed Rape: 15
Oilseed rape [2]; Postemergence, 31 g ai/ha
  Oilseed Rape plant response rating: 20
Oilseed rape [2]; Postemergence, 125 g ai/ha
  Oilseed Rape plant response rating: 35
Oilseed rape [2]; postemergence, 62 g ai/ha
  Oilseed Rape plant response rating: 25
Bluegrass [3]; [5]
  Plant response rating (scale 0 to 100), Bluegrass: 0
Bluegrass [3]; 31 g ai/ha
  Plant response rating, Bluegrass: 0
Bluegrass [3]; 62 g ai/ha
  Plant response rating, Bluegrass: 0
Bluegrass [3]; 125 g ai/ha
  Plant response rating, Bluegrass: 5
Field violet; [5]
  Plant response rating (scale 0 to 100), Field Violet: 25
Field violet; 31 g ai/ha
  Plant response rating, Field Violet: 60
Field violet; 62 g ai/ha
  Plant response rating, Field Violet: 60
Field violet; 125 g ai/ha
  Plant response rating, Field Violet: 95
Oilseed rape [4]; [5]
  Plant response rating (scale 0 to 100), Oilseed Rape: 5
Oilseed rape [4]; 31 g ai/ha
  Plant response rating, Oilseed Rape: 15
Oilseed rape [4]; 62 g ai/ha
  Plant response rating, Oilseed Rape: 40
Oilseed rape [4]; 125 g ai/ha
  Plant response rating, Oilseed Rape: 45
foxtail, green; [5]
  Plant response rating (scale 0 to 100), Foxtail, Green: 0
foxtail, green; 31 g ai/ha
  Plant response rating, Foxtail, Green: 5
foxtail, green; 62 g ai/ha
  Plant response rating, Foxtail, Green: 10
foxtail, green; 125 g ai/ha
  Plant response rating, Foxtail, Green: 30
